Read-outs that look alike come from different tables or passages of the source.
Tests used:
mushroom tyrosinase [1] = test: Mushroom tyrosinase enzyme assay with L-DOPA as substrate (475 nm); details: for inhibitory activity against tyrosinase: result in words; for IC50: L-DOPA oxidation, pH 6.8, 30 °C, mean of triplicate determinations ± standard deviation
Experimental: Firstly, the effect of the Q1compound against the tyrosinase activity was evaluated.
We measured enzyme assay with L-DOPA as the substrate. We determined enzyme activity at 475 nm in the spectrophotometric experiments. We dissolved the test compounds in DMSO at 1 mM, which was diluted to the required concentration (0, 15, 30, 60, 120, 180, 240, 300 μM). We measured the reaction solution (3 mL), consisting 0.75 mL sodium phosphate buffer (0.1 M, pH 6.8), 1.8 mL H2O, 0.3 mL L-DOPA (2 mM), 0.1 mL test compound, and 0.05 mL enzyme (0.2 mg /L), at 30 °C. We replaced test samples as control. We determined each concentration in three experiments. We used the concentration that inhibited half of the enzyme activity (IC50) to measure the inhibitory effect of inhibitor. We investigated kinetic parameters with increasing concentrations of L-DOPA and test samples by the Lineweaver–Burk double-reciprocal plot and Dixon plot methods. We calculated the % inhibition of tyrosinase as follows: Inhibition (%) = [1 − B/A]/100, where the A and B are the absorbances of the blank control and samples, respectively.

mushroom tyrosinase [2] = biological target: mushroom tyrosinase; design: method as in PMID 20638280; details: standard inhibitor; cited from earlier work
mushroom tyrosinase [3] = test: Fluorescence quenching of mushroom tyrosinase; assay type: binding; details: Q1 at 36 μM; excitation 290 nm, emission peak 333 nm
Experimental: The intrinsic interaction mechanisms of Q1 on the tyrosinase were investigated by the fluorescence quenching analysis. The fluorescence emission spectrum was recorded as ranging from 310 to 550 nm at a 290 nm excitation wavelength. […] However, the fluorescence intensity of tyrosinase reduced gradually as the concentration of the citral derivative increased.
(§1) We used fluorescence analysis (Varian Cary Eclipse fluorescence spectrophotometer) to perform fluorescence experiment, and set the excitation wavelength at 290 nm. We mixed inhibitor solution, substrates of tyrosine/L-DOPA or enzyme solution, and sodium phosphate buffer (pH 6.8) at the volumetric ratio of 1:1:8 (v/v/v).

[4] = Fluorescence quenching of tyrosine; assay type: binding; details: Q1 from 0 to 36 μM; intensity 447.6 to 216.5
Excerpt: We also investigated the fluorescence quenching Q1 experiment regarding tyrosine activity, and recorded the fluorescence intensity of tyrosine in the range of […]. […] Thus, the compound was also a good binding agent for tyrosine in a dose-dependent manner.
as §1

mushroom tyrosinase [5] = test: Kinetic studies of tyrosinase inhibition (enzyme concentration plots, Lineweaver-Burk plots); assay type: biochemical
Experimental: To ascertain the inhibition type and mechanism of Q1, we studied the relationship between the enzyme concentration and the remaining enzyme activity with various concentrations of Q1 (0, 15, 60, and 120 μM).
Different concentrations of the compound Q1 (0, 15, 60, and 120 μM) were applied to inhibit tyrosinase and obtain the kinetic behavior of tyrosinase catalysis. Lineweaver–Burk reciprocal plots were used to investigate the inhibition modes of Q1 on mushroom tyrosinase. […] Thus, Q1 could bind not only to the free enzymes but also to the enzyme–substrate complexes. […] Additionally, the value of KIS was measured to be 423.63 μM from the concentrations of the compound versus the vertical intercept.
We purchased mushroom tyrosinase (with specific activity 6680 U/mg), and L-3,4-dihydroxyphenyl-alanine (L-DOPA) from Sigma (St. Louis, MO, USA). We measured enzyme assay with L-DOPA as the substrate. We determined enzyme activity at 475 nm in the spectrophotometric experiments. We dissolved the test compounds in DMSO at 1 mM, which was diluted to the required concentration (0, 15, 30, 60, 120, 180, 240, 300 μM). We measured the reaction solution (3 mL), consisting 0.75 mL sodium phosphate buffer (0.1 M, pH 6.8), 1.8 mL H2O, 0.3 mL L-DOPA (2 mM), 0.1 mL test compound, and 0.05 mL enzyme (0.2 mg /L), at 30 °C. We replaced test samples as control. We determined each concentration in three experiments. We used the concentration that inhibited half of the enzyme activity (IC50) to measure the inhibitory effect of inhibitor. We investigated kinetic parameters with increasing concentrations of L-DOPA and test samples by the Lineweaver–Burk double-reciprocal plot and Dixon plot methods. We calculated the % inhibition of tyrosinase as follows: Inhibition (%) = [1 − B/A][…], where the A and B are the absorbances of the blank control and samples, respectively.

[6] = Fluorescence quenching of L-DOPA; assay type: binding; details: Q1 from 0 to 36 μM; intensity 1619 to 879.9
Experimental: Finally, the fluorescence emission spectra of L-DOPA were tested in the solutions of Q1 with various concentrations. […] Similarly, the fluorescence emission intensity of Q1 disappeared when it was added to the solution. The results inferred that Q1 was also a good L-DOPA binding agent.
as §1

Cc1ccc(-c2nc3ccccc3c(=O)[nH]2)cc1 [Compound Q6, 2-(p-tolyl)quinazolin-4(3H)-one]
inhibitory activity against tyrosinase (mushroom tyrosinase [1]): did not exhibit inhibitory activity

OC[C@H]1O[C@@H](Oc2ccc(O)cc2)[C@H](O)[C@@H](O)[C@@H]1O [arbutin]
IC50 (mushroom tyrosinase [2]): 180 µM

CC(C)=CCCC(C)=Cc1nc2ccccc2c(=O)[nH]1 [Compound Q1, 2-(2,6-dimethylhepta-1,5-dien-1-yl)quinazolin-4(3H)-one]
relative fluorescence intensity of tyrosinase (mushroom tyrosinase [3]): 39.45%
IC50 (mushroom tyrosinase [1]): 103 ± 2 µM
decrease of fluorescence intensity of tyrosine [4]: 51.63%
inhibition type (mushroom tyrosinase [5]; Lineweaver-Burk plots, Q1 at 0, 15, 60, 120 μM): mixed inhibition type
reversibility of inhibition (mushroom tyrosinase [5]; enzyme activity versus enzyme concentration, Q1 at 0, 15, 60, 120 μM): reversible
KIS (mushroom tyrosinase [5]; enzyme-substrate complex, from vertical intercept versus compound concentration): 423.63 µM
Ki (mushroom tyrosinase [5]; free enzyme, from plots of slope versus compound concentration, read-out: inhibitor constant (KI)): 117 µM
decrease of fluorescence intensity of L-DOPA [6]: 45.65%

COc1ccc(-c2nc3ccccc3c(=O)[nH]2)cc1 [Compound Q7, 2-(4-methoxyphenyl)quinazolin-4(3H)-one]
inhibitory activity against tyrosinase (mushroom tyrosinase [1]): did not exhibit inhibitory activity

CC(C)=CCCC(C)=Cc1nc2cccc(F)c2c(=O)[nH]1 [Compound Q2, 2-(2,6-dimethylhepta-1,5-dien-1-yl)-5-fluoroquinazolin-4(3H)-one]
melting point: 189 to 191 °C
IC50 (mushroom tyrosinase [1]): 105 ± 1 µM

CC(C)=CCCC(C)=Cc1nc2cc(C)ccc2c(=O)[nH]1 [Compound Q4, 2-(2,6-dimethylhepta-1,5-dien-1-yl)-7-methylquinazolin-4(3H)-one]
melting point: 188 to 192 °C
IC50 (mushroom tyrosinase [1]): 253 ± 2 µM

CC(C)=CCCC(C)=Cc1nc2ccc(Cl)cc2c(=O)[nH]1 [Compound Q3, 6-chloro-2-(2,6-dimethylhepta-1,5-dien-1-yl)quinazolin-4(3H)-one]
melting point: 190 to 192 °C
IC50 (mushroom tyrosinase [1]): 168 ± 2 µM
